We go through five compounds from patent US10329334B2 (SANOFI, priority 2015, dated 2019).

For experiment [1], the target named is T1, human lipocalin 2 (hNGAL) mutein SEQ ID NO: 57 (Homo sapiens, UniProt P80188, A60Y/C107S/D97R/I61W/K145L/K154N/K93R/L123Q/L56V/L90R/N116P/Q48H/Q69A/R101W/R92W/S147R/S88D/W99D/Y120E/Y126R/Y152A).
T1 construct: made in house; host or cells: E. coli
In words: Solution binding ELISA, mutein SEQ ID NO: 57.
Procedure: (§5) In detail, a 384-well plate suitable for fluorescence measurements (Greiner FLUOTRAC™ 600, black flat bottom, high-binding) was coated with 20 μl of Neutravidin at a concentration of 5 μg/ml in PBS over night at 4 C. After washing, the Neutravidin-coated wells were blocked with 100 μl blocking buffer containing 0.1% Tween 20 and 2% BSA (PBS-T/BSA) for 1 h at room temperature.
(§6) The residual supernatants were discarded and 20 μl HRP-labeled anti-hNGAL antibody was added at a predetermined optimal concentration in PBS-T/BSA and incubated for 1 h at RT. […] After washing, 20 μl fluorogenic HRP substrate (QuantaBlu, Thermo) was added to each well, and the reaction was allowed to proceed for 15 to 60 minutes. The fluorescence intensity of every well on the plate was read using a fluorescence microplate reader (Tecan or Molecular Devices). […] Curve fitting was performed using GraphPad Prism 4 software.

In experiment [2] the target is T2, human lipocalin 2 (hNGAL) muteins from affinity optimization of SEQ ID NO: 56 (Homo sapiens, UniProt P80188).
T2 construct: C-terminal SA linker and Strep-tag II; E. coli
T2 sequence (P80188 21-198, stated change not applied): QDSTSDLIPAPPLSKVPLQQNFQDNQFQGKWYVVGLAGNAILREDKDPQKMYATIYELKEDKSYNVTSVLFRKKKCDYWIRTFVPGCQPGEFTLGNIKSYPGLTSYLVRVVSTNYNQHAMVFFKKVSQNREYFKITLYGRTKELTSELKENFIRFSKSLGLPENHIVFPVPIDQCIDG
In words: Solution binding ELISA, muteins from affinity optimization of SEQ ID NO: 56. How it is done:
(§1) Solution binding of muteins was assayed by a “Solution binding ELISA”, the principle of which was as follows: a constant concentration of the tested mutein was incubated with variable concentrations of ligands (Pvd I s, sa, aKG+/−Fe/Pvd II s, sa, aKG+/−Fe/Pvd III s, sa, aKG+/−Fe/Pch+/−Fe) for 1 h. After this pre-incubation in solution, an aliquot of the mutein/ligand mixture was transferred to an ELISA plate with biotinalyted Pvd I s (+Fe), Pvd II s (+Fe), Pvd III s (+Fe) or Pch immobilized via Neutravidin to measure the remaining concentration of free muteins. The concentration of free (non ligand-bound) muteins was determined via a quantitative ELISA setup.
(§2) In detail, a 384-well plate suitable for fluorescence measurements (Greiner FLUOTRAC™ 600, black flat bottom, high-binding) was coated with 20 μl of Neutravidin at a concentration of 5 μg/ml in PBS over night at 4 C. […]
(§3) The residual supernatants were discarded and 20 μl HRP-labeled anti-hNGAL antibody was added at a predetermined optimal concentration in PBS-T/BSA and incubated for 1 h at RT. […] The fluorescence intensity of every well on the plate was read using a fluorescence microplate reader (Tecan or Molecular Devices). To evaluate the data, free mutein concentration, c(mutein)free, was calculated based on the standard curve results, and plotted versus ligand concentration, c(Ligand). […]

Experiment [3] has as its target T3, human lipocalin 2 (hNGAL) mutein SEQ ID NO: 56 (Homo sapiens, UniProt P80188, A60F/C107S/D97A/I61H/K145G/K154V/K93A/L123M/L56M/L90P/N116A/Q48H/Q69S/R101I/R92W/S147W/S88H/W99K/Y120G/Y126W/Y152T/Y72P).
T3 construct: made in house; host or cells: E. coli
Nature of the experiment: Solution binding ELISA, mutein SEQ ID NO: 56.
Procedure: as §5, §6

For experiment [4], the target named is T4, human lipocalin 2 (hNGAL) muteins from affinity optimization of SEQ ID NO: 55 (Homo sapiens, UniProt P80188).
T4 construct: C-terminal SA linker and Strep-tag II; E. coli
T4 sequence (P80188 21-198, stated change not applied): as above
Nature of the experiment: Solution binding ELISA, muteins from affinity optimization of SEQ ID NO: 55. The protocol: as §1, §2, §3

In experiment [5] the target is negative control lipocalin SEQ ID NO: 64 (Homo sapiens, UniProt P80188, C107S/Q48H). In words: SPR (Biacore T200), negative control SEQ ID NO: 64. The class given is binding. The conditions noted are these: 200 nM. How it is done: (§4) In a Surface Plasmon Resonance (SPR) based assay a Biacore T200 instrument (GE Healthcare) was used to measure the binding affinity of muteins to pyoverdine I succinyl, -succinamid, -α-ketoglutaryl with complexed iron ion or to pyoverdine II succinyl, -succinamid, -α-ketoglutaryl with complexed iron ion or to pyoverdine III succinyl, -succinamid, -α-ketoglutaryl with complexed iron ion. Muteins selected for binding to pyoverdines and negative control (SEQ ID NO: 64) were biotinylated for 2 h at room temperature applying an appropriate excess of EZ-Link NHS-PEG4-Biotin (Thermo, […]) followed by separation of non-reacted Biotin using a Zeba Spin Desalting Plate (Thermo, […]) according to the manufactures instructions.
Chain of negative control lipocalin SEQ ID NO: 64 (P80188 21-198 Q48H/C107S): as the sequence (P80188 21-198, stated change not applied) above, with Q28H, C87S counted along it
In the SPR affinity assay, biotinylated muteins and negative control were captured on a sensor chip CAP using the Biotin CAPture Kit (GE Healthcare): Sensor Chip CAP is pre-immobilized with an ssDNA oligo. Undiluted Biotin CAPture Reagent (streptavidin conjugated with the complementary ss-DNA oligo) was applied at a flow rate of 2 μl/min for 300 s. Subsequently, 1 μg/ml to 100 μg/mL of biotinylated muteins or negative control were applied for 300 s at a flow rate of 5 μl/min. The reference channel was loaded with Biotin CAPture Reagent only.
Applying a flow rate of 30 μl/min, a single cycle or multi cycle kinetics approach was used with a sample contact time of 120-180 s and a dissociation time of 900-2400 s. […] After ligand immobilization, for analysis using single cycle kinetics all 4-5 concentrations of Pvd were applied consecutively in ascending order before the dissociation was monitored. For analysis using multi cycle kinetics 4 dilutions of Pvd were applied, each followed a dissociation phase. All measurements were performed at 25° C. […] Data were evaluated with Biacore T200 Evaluation software (V 1.0). Double referencing was used. A 1:1 Binding model was used to fit the raw data. […]

Experiment [6] concerns the target natural wild-type hNGAL (human lipocalin 2) (Homo sapiens, UniProt P80188). As to conditions: Peek et al. 2012; cited from earlier work.
The target in experiment [7] is T5, human lipocalin 2 (hNGAL) mutein SEQ ID NO: 35 (Homo sapiens, UniProt P80188, A60T/C107S/D97H/K145I/K154W/K93R/L123T/L56V/L90R/N85Q/Q48H/Q69G/R101D/R92I/S147R/S88D/T74A/W99Y/Y126Q/Y152I/Y72N).
T5 construct: made in house; host or cells: E. coli
T5 sequence (P80188 21-198 with the stated changes): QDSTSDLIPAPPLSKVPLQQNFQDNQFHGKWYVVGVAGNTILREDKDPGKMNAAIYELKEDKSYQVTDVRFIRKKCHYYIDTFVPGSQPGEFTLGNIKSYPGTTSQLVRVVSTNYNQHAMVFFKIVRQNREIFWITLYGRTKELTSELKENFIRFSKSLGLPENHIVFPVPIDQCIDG
Nature of the experiment: SPR (Biacore T200), mutein SEQ ID NO: 35. The class given is binding.
Procedure: (§7) In a Surface Plasmon Resonance (SPR) based assay a Biacore T200 instrument (GE Healthcare) was used to measure the binding affinity of muteins to pyoverdine I succinyl, -succinamid, -α-ketoglutaryl with complexed iron ion or to pyoverdine II succinyl, -succinamid, -α-ketoglutaryl with complexed iron ion or to pyoverdine III succinyl, -succinamid, -α-ketoglutaryl with complexed iron ion. Muteins selected for binding to pyoverdines and negative control (SEQ ID NO: 64) were biotinylated for 2 h at room temperature applying an appropriate excess of EZ-Link NHS-PEG4-Biotin (Thermo, Cat#21329) followed by separation of non-reacted Biotin using a Zeba Spin Desalting Plate (Thermo, Cat#21329) according to the manufactures instructions.

In experiment [8] the target is T6, human lipocalin 2 (hNGAL) mutein SEQ ID NO: 16 (Homo sapiens, UniProt P80188, A60T/C107S/D97I/I100T/I61A/K145Y/K154N/K93E/K95E/L123Q/L56W/L90Q/N116G/N85D/Q69P/R101I/R92P/S147T/S88D/T156A/T74V/W99S/Y120S/Y126H/Y152G/Y72P).
T6 construct: made in house; host or cells: E. coli
T6 sequence (P80188 21-198 with the stated changes): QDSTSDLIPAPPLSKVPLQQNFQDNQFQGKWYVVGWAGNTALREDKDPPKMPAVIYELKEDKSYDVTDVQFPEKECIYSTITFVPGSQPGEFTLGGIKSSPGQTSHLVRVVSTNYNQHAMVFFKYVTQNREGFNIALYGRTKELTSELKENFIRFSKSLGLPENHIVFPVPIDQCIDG
Nature of the experiment: SPR (Biacore T200), mutein SEQ ID NO: 16. The conditions noted are these: 25° C. The class given is binding.
Procedure: as §7

Experiment [9] has as its target T7, human lipocalin 2 (hNGAL) mutein SEQ ID NO: 11 (Homo sapiens, UniProt P80188, A60T/C107S/D97V/I61T/K145Y/K154N/K93D/L123N/L56W/L90Q/N116G/Q48H/Q69P/R101I/R92P/S147V/S88D/W99S/Y120N/Y126H/Y152G/Y72P).
T7 construct: made in house; host or cells: E. coli
Nature of the experiment: SPR (Biacore T200), mutein SEQ ID NO: 11. The conditions noted are these: 25° C. The class given is binding.
Procedure: as §7

For experiment [10], the target named is T8, human lipocalin 2 (hNGAL) mutein SEQ ID NO: 10 (Homo sapiens, UniProt P80188, A60T/C107S/D97T/I61T/K145Y/K154N/K93E/L123E/L56W/L90Q/N116D/Q48H/Q69P/R101I/R92P/S147D/S88D/V131M/W99S/Y120N/Y126H/Y152G/Y72P).
T8 construct: made in house; host or cells: E. coli
T8 sequence (P80188 other isoform, or with tags, fused parts or gaps with the stated changes): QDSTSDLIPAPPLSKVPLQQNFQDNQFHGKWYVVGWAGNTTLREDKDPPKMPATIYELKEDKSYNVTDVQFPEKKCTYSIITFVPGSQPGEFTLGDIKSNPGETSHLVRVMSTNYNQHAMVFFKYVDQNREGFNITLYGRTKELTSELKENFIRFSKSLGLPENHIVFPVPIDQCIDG
In words: SPR (Biacore T200), mutein SEQ ID NO: 10. As to conditions: 25° C. The class given is binding.
Procedure: as §7

The target of experiment [11] is T9, human lipocalin 2 (hNGAL) mutein SEQ ID NO: 33 (Homo sapiens, UniProt P80188, A60E/C107S/D97N/E64D/I61V/K145N/K154W/K93N/L123V/L56V/L90R/N116K/N85Q/Q48H/Q69G/R101E/R92H/S147K/S88E/W99F/Y120N/Y126M/Y152G/Y72P).
T9 construct: made in house; host or cells: E. coli
T9 sequence (P80188 21-198 with the stated changes): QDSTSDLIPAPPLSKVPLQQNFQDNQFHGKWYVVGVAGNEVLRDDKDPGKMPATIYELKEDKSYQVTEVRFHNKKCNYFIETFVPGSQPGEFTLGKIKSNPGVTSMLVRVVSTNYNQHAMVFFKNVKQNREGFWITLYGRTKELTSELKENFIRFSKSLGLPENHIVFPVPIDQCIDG
Nature of the experiment: SPR (Biacore T200), mutein SEQ ID NO: 33. The conditions noted are these: 25° C. The class given is binding.
Procedure: as §7

The target of experiment [12] is T10, human lipocalin 2 (hNGAL) mutein SEQ ID NO: 36 (Homo sapiens, UniProt P80188, A60T/C107S/D97H/K145I/K154W/K93R/L123T/L56V/L90R/N85D/Q69G/R101D/R92I/S147R/S88D/T74A/W99Y/Y126Q/Y152I/Y72N).
T10 construct: made in house; host or cells: E. coli
T10 sequence (P80188 21-198 with the stated changes): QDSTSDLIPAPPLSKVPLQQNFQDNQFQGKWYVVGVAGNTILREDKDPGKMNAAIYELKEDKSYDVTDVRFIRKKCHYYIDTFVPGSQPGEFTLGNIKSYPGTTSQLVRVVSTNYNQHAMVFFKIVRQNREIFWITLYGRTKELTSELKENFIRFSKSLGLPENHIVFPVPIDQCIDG
In words: SPR (Biacore T200), mutein SEQ ID NO: 36. The class given is binding. The conditions noted are these: 25° C.
Procedure: as §7

Experiment [13] concerns the target T11, human lipocalin 2 (hNGAL) mutein SEQ ID NO: 8 (Homo sapiens, UniProt P80188, A60T/C107S/D97I/I100T/I61T/K145Y/K154N/K93E/L123Q/L56W/L90Q/N116G/Q48H/Q69P/R101I/R92P/S147I/S88D/W99S/Y120S/Y126H/Y152G/Y72P).
T11 construct: made in house; host or cells: E. coli
Nature of the experiment: SPR (Biacore T200), mutein SEQ ID NO: 8. The class given is binding. As to conditions: 25° C.
Procedure: as §7

Experiment [14] addresses T12, human lipocalin 2 (hNGAL) mutein SEQ ID NO: 9 (Homo sapiens, UniProt P80188, A60T/C107S/D97I/I61T/K145Y/K154N/K93D/L123D/L56W/L90Q/N116G/Q48H/Q69P/R101I/R92P/S147V/S88D/W99S/Y120N/Y126H/Y152G/Y72P).
T12 construct: made in house; host or cells: E. coli
In words: SPR (Biacore T200), mutein SEQ ID NO: 9. The class given is binding. The conditions noted are these: 25° C.
Procedure: as §7

For experiment [15], the target named is T13, human lipocalin 2 (hNGAL) mutein SEQ ID NO: 32 (Homo sapiens, UniProt P80188, A60E/C107S/D97N/E64D/I61V/K145N/K154W/K93N/L123V/L56V/L90R/N116K/N85D/Q48H/Q69G/R101E/R92H/S147K/S88E/W99F/Y120N/Y126M/Y152G/Y72P).
T13 construct: made in house; host or cells: E. coli
T13 sequence (P80188 21-198 with the stated changes): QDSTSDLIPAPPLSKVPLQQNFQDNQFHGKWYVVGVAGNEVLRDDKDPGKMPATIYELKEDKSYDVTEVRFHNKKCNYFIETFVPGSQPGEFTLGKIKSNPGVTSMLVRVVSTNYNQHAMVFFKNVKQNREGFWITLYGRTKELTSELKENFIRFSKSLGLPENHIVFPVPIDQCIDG
In words: SPR (Biacore T200), mutein SEQ ID NO: 32. The class given is binding. As to conditions: 25° C.
Procedure: as §7

Experiment [16] has as its target T14, human lipocalin 2 (hNGAL) mutein SEQ ID NO: 53 (Homo sapiens, UniProt P80188, A60L/C107S/D97K/I61A/K154W/K93H/L123Q/L56E/L62R/L90R/N116L/N85D/Q69M/R101V/S125P/S147V/S88E/W99D/Y120D/Y126E/Y72M).
T14 construct: made in house; host or cells: E. coli
In words: SPR (Biacore T200), mutein SEQ ID NO: 53. The conditions noted are these: 25° C. The class given is binding. How it is done:
as §4
In the SPR affinity assay, biotinylated muteins and negative control were captured on a sensor chip CAP using the Biotin CAPture Kit (GE Healthcare): Sensor Chip CAP is pre-immobilized with an ssDNA oligo. […]
Applying a flow rate of 30 μl/min, a single cycle or multi cycle kinetics approach was used with a sample contact time of 120-180 s and a dissociation time of 900-2400 s. […] After ligand immobilization, for analysis using single cycle kinetics all 4-5 concentrations of Pvd were applied consecutively in ascending order before the dissociation was monitored. […] Data were evaluated with Biacore T200 Evaluation software (V 1.0). […]

Experiment [17] deals with T15, human lipocalin 2 (hNGAL) mutein SEQ ID NO: 13 (Homo sapiens, UniProt P80188, A60T/C107S/D97I/I100T/I61T/K145Y/K154N/K93E/K95E/L123Q/L56W/L90Q/N116G/Q48H/Q69P/R101I/R92P/S147T/S88D/T74V/W99S/Y120S/Y126H/Y152G/Y72P).
T15 construct: made in house; host or cells: E. coli
T15 sequence (P80188 21-198 with the stated changes): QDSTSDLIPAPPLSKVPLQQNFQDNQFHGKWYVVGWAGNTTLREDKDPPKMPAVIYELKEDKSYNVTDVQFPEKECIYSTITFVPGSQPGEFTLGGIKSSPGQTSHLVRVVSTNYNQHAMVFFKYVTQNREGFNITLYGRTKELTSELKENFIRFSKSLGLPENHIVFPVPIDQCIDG
Nature of the experiment: SPR (Biacore T200), mutein SEQ ID NO: 13. The class given is binding. The conditions noted are these: 25° C.
Procedure: as §7

Chain of natural wild-type hNGAL (human lipocalin 2) (P80188 21-198): as the sequence (P80188 21-198, stated change not applied) above
T1 sequence (P80188 21-198 with the stated changes): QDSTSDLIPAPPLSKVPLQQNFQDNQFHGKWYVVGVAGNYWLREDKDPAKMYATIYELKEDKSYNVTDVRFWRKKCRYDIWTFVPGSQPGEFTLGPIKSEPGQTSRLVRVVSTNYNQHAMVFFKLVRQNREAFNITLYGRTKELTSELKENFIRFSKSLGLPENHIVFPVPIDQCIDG
T3 sequence (P80188 21-198 with the stated changes): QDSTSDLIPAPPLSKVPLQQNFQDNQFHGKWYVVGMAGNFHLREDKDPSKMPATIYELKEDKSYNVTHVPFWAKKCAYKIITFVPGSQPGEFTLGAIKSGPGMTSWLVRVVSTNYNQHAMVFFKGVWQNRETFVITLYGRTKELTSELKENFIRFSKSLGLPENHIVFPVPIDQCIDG
T12 sequence (P80188 other isoform, or with tags, fused parts or gaps with the stated changes): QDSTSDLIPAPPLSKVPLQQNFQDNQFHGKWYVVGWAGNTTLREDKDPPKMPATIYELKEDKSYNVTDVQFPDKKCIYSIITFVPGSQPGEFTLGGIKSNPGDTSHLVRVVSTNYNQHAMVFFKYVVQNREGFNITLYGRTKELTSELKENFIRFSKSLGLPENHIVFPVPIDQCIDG
T14 sequence (P80188 21-198 with the stated changes): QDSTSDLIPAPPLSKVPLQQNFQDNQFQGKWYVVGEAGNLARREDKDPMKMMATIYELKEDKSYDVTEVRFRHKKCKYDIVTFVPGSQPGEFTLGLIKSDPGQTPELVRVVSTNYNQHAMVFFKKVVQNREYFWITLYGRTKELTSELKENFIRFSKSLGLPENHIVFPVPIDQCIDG
T11 sequence (P80188 other isoform, or with tags, fused parts or gaps with the stated changes): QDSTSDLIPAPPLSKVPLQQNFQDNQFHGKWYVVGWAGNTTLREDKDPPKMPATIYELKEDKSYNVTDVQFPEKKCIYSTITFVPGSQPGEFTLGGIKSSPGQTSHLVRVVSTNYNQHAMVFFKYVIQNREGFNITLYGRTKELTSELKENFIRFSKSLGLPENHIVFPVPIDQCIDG
T7 sequence (P80188 21-198 with the stated changes): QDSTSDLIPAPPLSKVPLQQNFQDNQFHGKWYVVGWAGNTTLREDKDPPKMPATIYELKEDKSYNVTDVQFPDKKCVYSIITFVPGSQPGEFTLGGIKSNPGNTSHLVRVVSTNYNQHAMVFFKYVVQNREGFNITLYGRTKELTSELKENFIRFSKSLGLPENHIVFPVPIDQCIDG

Take `CN1C([C@H]2CSC(c3ccccc3O)=N2)SC[C@H]1C(=O)O.[Fe+3]` (stereo partly shown) [pch (+Fe), pyochelin]: the “affinity (in words)” value in experiment [1] is “two- to three digit nM affinity”; in experiment [2] it was “no or weak affinity”; in experiment [3], “two- to three digit nM affinity”; in experiment [4] (solution binding ELISA), “single digit nM affinity”. Moreover, the “absence of binding to negative control” value in experiment [5] is on record as “absence of binding”.

With `CN1C([C@H]2CSC(c3ccccc3O)=N2)SC[C@H]1C(=O)O` (stereo partly shown) [pch (−Fe), pyochelin], the “affinity (in words)” value in experiment [1] and in [3] was “weak affinity or not at all” throughout. Moreover, in [4] (versus SEQ ID NO: 55), the improved affinity entry is on record as “more than 75 fold”.

Take Pyoverdine: the “binding to wild-type hNGAL” value in experiment [6] is on record as “did not bind”.

In the case of `O=C(N[C@H]1COC(=O)[C@@H](NC(=O)c2cccc(O)c2O)COC(=O)[C@@H](NC(=O)c2cccc(O)c2O)COC1=O)c1cccc(O)c1O` [Enterobactin, enterobactin, reference compound], the “binding to wild-type hNGAL” value in [6] was “high affinity”. In addition, the “specificity and crossreactivity (binding)” value in [7] (2 μM for all analytes) is recorded as “absence of binding”.

Turning to `O=C(N[C@H]1COC(=O)[C@@H](NC(=O)c2cccc(O)c2O)COC(=O)[C@@H](NC(=O)c2cccc(O)c2O)COC1=O)c1cccc(O)c1O.[Fe+3]` [Fe-Enterobactin, enterobactin], the KD entry in experiment [8], in experiment [9], in experiment [10], in experiment [11], in [12] and in experiment [13] was “no bdg” throughout. Also, the KD result in experiment [14], in experiment [7] (25° C.), in [15], in experiment [16] and in [17] was “no bdg” each time.
